Test results taken from publication PMC3954831, “Protection of Cardiomyocytes from the Hypoxia-Mediated Injury by a Peptide Targeting the Activator of G-Protein Signaling 8” (PLoS ONE, 2014).

Experiments:
[1] = tested on: connexin 43 (CX43) of cultured cardiomyocytes; settings: gallein 100 µM; ref [13]; cited from earlier work
Description: Gallein is an inhibitor of Gβγ-mediated signaling that occupies a “common” interaction surface of Gβγ and inhibits the interaction of Gβγ-regulated proteins with Gβγ [25]. Thus, gallein is expected to block a wide range of Gβγ signals in cells, including CX43 regulation mediated by AGS-Gβγ. We previously demonst ...

cardiomyocytes = test: MTT assay, viability of cardiomyocytes; format: cell-based, Wistar rat
Procedure: Cardiomyocytes in 24-well culture plates were incubated in PBS (pH 7.4) containing 0.5 mg/ml MTT at 37°C. After for 2 h incubation, the PBS was removed and 100 µl of dimethyl sulfoxide (DMSO) was added to each well to solubilize dark blue formazan products. Absorbance of the colored solution was determined at 595 nm.
Here, we first examined the influence of the AGS8-peptide and gallein on the viability of cells. Cardiomyocytes were incubated with gallein for 24 h, and their viability was determined by MTT assay.
Figure 7 Effect of AGS8-peptide or Gallein on the viability of cardiomyocytes determined by MTT assay. Neonatal cardiomyocytes were cultured for 24-peptide or Gallein. […] N = 5 from 5 independent experiments.

In the case of `O=C1OC2(c3ccccc31)c1ccc(O)c(O)c1Oc1c2ccc(O)c1O` [gallein], the “inhibition of hypoxia-induced internalization of CX43” value [1] is listed as “completely inhibits hypoxia-induced internalization of CX43”, the “cytotoxicity / viability of cardiomyocytes” value (cardiomyocytes; MTT assay, 1 µM, 24 h, N = 5 independent experiments) is listed as “caused damage in the cardiomyocytes” and the cytotoxicity under normoxia (cardiomyocytes; normoxia) is listed as “produced deleterious effects”.
